According to patent publication US20040191254A1, “Method of treatment of thyroid cancer” (priority 2001, published 2004):
Entries after “also recorded” stand apart in the source; their conditions may differ.

How the values were obtained:
[1] = target: T1, RET/PTC3 (Homo sapiens, UniProt P07949); assay: RET/PTC autophosphorylation, in vitro immunokinase assay of RET-IP extracts from RET/PTC3-5 cells; format: biochemical; conditions: RET-IP extracts from RET/PTC3-5 cells treated with doxycycline for 48 h
T1 construct: expressed in transfected cells; host or cells: PCCL3 thyroid cell line (clone RET/PTC3-5), doxycycline-inducible expression
T1 sequence (P07949 with tags, fused parts or gaps): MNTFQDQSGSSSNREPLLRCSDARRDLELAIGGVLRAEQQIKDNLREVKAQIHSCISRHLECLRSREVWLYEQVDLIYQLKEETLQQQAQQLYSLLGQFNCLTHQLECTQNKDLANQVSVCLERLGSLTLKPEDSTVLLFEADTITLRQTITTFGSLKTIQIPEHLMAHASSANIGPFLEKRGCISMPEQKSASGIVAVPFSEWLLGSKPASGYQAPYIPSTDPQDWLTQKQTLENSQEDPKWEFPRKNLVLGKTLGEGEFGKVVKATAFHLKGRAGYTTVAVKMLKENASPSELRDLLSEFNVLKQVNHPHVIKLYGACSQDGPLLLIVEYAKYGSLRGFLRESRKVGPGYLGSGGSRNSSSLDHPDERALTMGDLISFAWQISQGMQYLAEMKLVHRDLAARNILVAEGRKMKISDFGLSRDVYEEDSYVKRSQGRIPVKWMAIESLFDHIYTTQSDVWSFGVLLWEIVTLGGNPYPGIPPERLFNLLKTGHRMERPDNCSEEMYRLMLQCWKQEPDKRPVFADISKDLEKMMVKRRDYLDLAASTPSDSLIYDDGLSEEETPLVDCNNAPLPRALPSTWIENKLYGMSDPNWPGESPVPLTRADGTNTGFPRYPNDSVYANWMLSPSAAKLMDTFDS
Text: In order to explore the activity of a compound which decreases the activity of the EGF on RET kinase, for example, a well-differentiated clonal thyroid cell line, PCCL3, conditionally expressing either RET/PTC3 or RET/PTC1 in a tetracyclin (doxycyclin)-dependent manner as described below can be used. The activation of expression of RET/PTC1 or 3 results in dimerization, autophosphorylation, and association with a number of signaling intermediates including Shc and PLCγ. […]
Confluent T-75 flasks are washed with ice cold PBS containing 0.2 mM sodium ortho-vanadate, Cells are then lysed with cold RIPA buffer 1.8 ml (20 mM Tris, pH 7.4, 150 mM NaCl, 1% Nonidet P-40, 1% Tween 20, 20 mM sodium fluoride, 1 mM sodium ortho-vanadate, 1 mM EGTA, […], 0.2 mM PMSF, with Sigma Protease inhibitor mix) with constant agitation at 4 C for 20 min. […] Proteins are subjected to SDS-PAGE gel (7.5%), their phosphorylation measured by Phosphorimager densitometry (Molecular Dynamics, Sunnyvale, Calif.) after transfer to nitrocellulose membranes. Phosphorylation is then normalized to total RET protein in the IP determined by Western analysis using goat polyclonal anti-RET antibody (SantaCruz). […]

[2] = test system: PLCγ phosphorylation by RET/PTC; assay: Activation (phosphorylation) of PLCγ by RET/PTC in Ret-PTC3-5 cells; format: cell-based; conditions: Ret-PTC3-5 cells, doxycycline, inhibitor for 24 h; read-out: IC50 of inhibition of PLCγ phosphorylation
Procedure: Ret-PTC3-5 cells are seeded at 1×10^5 cells/well in 6-well Corning plates. After 3 days, cells are treated with or without doxycycline in the presence of the selected concentration of inhibitor dissolved in solvent for 24 h. Cells are rinsed twice with cold PBS containing 0.1 mM sodium orthovanadate, and left for 20 minutes in ice-cold RIPA buffer. Cell lysates are collected by centrifugation at 4C, and pelletted at 10,000×g for 20 min. Protein assays are performed on aliquots of supernatants by the Coomassie Blue assay (Pierce, Rockford, Ill.). 650 μg of protein are incubated with anti-PLC γ antibody (SantaCruz) or normal IgG overnight. The immune complexes are precipitated with proteinAG agarose (Santa Cruz) previously washed with RIPA buffer as described. After three washes with RIPA buffer, precipitates are eluted into 30 μl sample buffer, heated 10 min at 95 C, and ran on SDS-PAGE gel for Western blot analysis. Blots are initially probed with anti-phosphotyrosine. Loading is normalized by probing with anti-PLC γ antibody (SantaCruz).
It was shown before that upon activation, RET associates with and phosphorylates PLCγ. To further explore the effects of PKI166 on RET kinase activity, the impact of pretreatment with the compound on PLCγ phosphorylation is examined. When grown in the absence of doxycycline, there is no detectable PLCγ phosphorylation. […]

[3] = target: T2, EGF-R (Homo sapiens, UniProt P00533); assay: EGF-R autophosphorylation, immunokinase assay of A431 cells; format: biochemical
T2 construct: The human squamous-cell carcinoma cell line A431 stably overexpressing the EGF-R; endogenous in cells; host or cells: A431 human squamous-cell carcinoma cells
T2 sequence (P00533 25-1210): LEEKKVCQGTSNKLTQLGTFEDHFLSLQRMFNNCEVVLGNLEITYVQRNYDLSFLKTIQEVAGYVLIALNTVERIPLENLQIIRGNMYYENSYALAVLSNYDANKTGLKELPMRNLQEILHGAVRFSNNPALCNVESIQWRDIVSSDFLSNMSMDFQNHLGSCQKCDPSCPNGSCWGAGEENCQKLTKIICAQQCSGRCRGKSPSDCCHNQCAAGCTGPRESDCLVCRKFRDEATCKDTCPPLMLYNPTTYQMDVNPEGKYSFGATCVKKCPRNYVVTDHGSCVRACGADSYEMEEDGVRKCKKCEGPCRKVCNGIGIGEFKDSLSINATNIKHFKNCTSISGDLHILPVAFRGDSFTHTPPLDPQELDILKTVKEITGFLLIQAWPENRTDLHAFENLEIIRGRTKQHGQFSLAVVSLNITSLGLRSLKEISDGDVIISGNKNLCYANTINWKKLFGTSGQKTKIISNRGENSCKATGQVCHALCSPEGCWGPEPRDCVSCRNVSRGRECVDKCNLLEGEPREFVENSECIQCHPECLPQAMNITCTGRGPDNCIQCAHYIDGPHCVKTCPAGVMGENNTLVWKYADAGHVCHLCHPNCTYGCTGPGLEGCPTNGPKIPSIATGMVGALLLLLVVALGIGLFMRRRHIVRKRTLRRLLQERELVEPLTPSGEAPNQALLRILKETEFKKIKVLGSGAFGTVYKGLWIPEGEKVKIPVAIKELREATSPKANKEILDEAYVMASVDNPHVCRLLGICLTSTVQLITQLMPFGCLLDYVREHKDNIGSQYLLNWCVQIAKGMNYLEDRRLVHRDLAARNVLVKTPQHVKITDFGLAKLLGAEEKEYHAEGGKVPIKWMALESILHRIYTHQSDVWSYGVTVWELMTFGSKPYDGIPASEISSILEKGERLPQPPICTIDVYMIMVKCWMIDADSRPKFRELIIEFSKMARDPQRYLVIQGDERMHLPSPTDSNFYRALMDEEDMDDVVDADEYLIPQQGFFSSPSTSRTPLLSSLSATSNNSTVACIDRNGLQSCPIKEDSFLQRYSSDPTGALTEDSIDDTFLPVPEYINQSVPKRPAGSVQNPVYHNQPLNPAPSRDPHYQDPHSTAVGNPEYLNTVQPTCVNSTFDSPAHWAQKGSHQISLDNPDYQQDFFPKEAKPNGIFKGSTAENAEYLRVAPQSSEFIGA

[4] = target: T3, insulin receptor (Homo sapiens, UniProt P06213); assay: Insulin receptor autophosphorylation, immunokinase assay of CHO-wt-IR cells; format: biochemical
T3 construct: expressed in transfected cells; host or cells: CHO-wt IR cells
T3 sequence (P06213 28-1382, species assumed): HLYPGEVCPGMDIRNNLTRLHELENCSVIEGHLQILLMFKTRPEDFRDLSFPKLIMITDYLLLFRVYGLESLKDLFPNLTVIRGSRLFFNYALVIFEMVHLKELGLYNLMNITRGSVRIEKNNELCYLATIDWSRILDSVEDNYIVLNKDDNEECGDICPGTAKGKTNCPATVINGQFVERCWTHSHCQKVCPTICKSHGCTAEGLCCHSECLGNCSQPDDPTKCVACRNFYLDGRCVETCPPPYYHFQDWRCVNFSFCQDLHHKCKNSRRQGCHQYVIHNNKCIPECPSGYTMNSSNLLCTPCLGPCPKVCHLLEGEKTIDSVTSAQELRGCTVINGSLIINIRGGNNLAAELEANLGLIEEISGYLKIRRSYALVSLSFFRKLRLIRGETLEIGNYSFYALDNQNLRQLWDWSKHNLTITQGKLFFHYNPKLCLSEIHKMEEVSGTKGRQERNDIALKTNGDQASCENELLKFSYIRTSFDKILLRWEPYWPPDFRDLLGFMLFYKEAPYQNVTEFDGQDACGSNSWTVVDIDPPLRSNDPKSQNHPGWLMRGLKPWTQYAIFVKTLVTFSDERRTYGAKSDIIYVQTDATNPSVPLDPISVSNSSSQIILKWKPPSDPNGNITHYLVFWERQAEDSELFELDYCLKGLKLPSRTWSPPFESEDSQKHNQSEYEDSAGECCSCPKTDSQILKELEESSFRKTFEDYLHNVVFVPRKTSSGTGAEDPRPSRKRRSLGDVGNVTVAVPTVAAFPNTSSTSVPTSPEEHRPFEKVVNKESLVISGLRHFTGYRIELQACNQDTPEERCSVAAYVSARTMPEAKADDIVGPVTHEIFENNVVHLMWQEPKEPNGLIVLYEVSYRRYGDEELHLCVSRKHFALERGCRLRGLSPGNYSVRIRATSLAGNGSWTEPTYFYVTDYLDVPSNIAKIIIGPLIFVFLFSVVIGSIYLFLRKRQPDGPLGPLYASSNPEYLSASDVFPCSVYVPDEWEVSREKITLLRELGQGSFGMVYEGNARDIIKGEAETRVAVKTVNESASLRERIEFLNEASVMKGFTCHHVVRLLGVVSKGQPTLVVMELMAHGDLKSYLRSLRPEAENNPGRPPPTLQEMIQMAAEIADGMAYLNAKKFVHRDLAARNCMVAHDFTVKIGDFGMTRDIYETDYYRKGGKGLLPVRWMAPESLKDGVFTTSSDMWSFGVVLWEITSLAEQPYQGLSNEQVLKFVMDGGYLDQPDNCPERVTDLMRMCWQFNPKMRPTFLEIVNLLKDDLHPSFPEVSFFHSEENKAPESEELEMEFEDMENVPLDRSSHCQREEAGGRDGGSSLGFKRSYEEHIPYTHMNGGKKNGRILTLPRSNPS

[5] = test system: NIH3T3-RETC634Y cells; assay: Growth of NIH3T3 cells expressing constitutively active RET Cys634Tyr; format: cell-based; conditions: 20 nM or 30 nM for 9 days, 5% or 1% serum (FIG. 1)
Procedure: (§1) The indicated cell lines are allowed to plate overnight in 6-well plates (NIH3T3 cells at 5×10^4; 3T3-RETC634Y at 2×10^4). They are then grown in the presence of no PKI166, 20 nM PKI166 or 30 nM PKI166 for 9 days, with media changes every 3 days. Bars represent the X±SD of cell counts in 3 independent experiments. The first three columns show the results in NIH3T3-RetCys634Tyr in 5% serum, the next three columns show the results in NIH3T3-RetCys634Tyr in 1% serum and the last two columns the results in NIH3T3 in 5% serum (only vehicle and 30 nM PKI 166).
(§2) […] is the most common germine mutation of RET in multiple endocrine neoplasia type 2A stably expressing a constitutively active form of RET. NIH3T3-RETC634Y cells are transformed, as evidenced by growth in low serum conditions, colony formation in soft agar, and tumor formation in nude mice. […] PKI166 has no effect on growth of wild-type NIH3T3 cells grown in 5% serum (FIG. 1).

[6] = test system: wild-type NIH3T3 cells; assay: Growth of wild-type NIH3T3 cells; format: cell-based; conditions: 5% serum; 30 nM, 9 days (FIG. 1)
Procedure: as §1, §2

IC50 [1]: ~17.7 nM | IC50 [2]: ~4 nM | IC50 [3]: 8 nM | effect on insulin receptor autophosphorylation [4]: no effects
Compound: C[C@@H](Nc1ncnc2[nH]c(-c3ccc(O)cc3)cc12)c1ccccc1 [PKI166, (R)-6-(4-hydroxy-phenyl)-4-[(1-phenyl-ethyl)-amino]-7H-pyrrolo[2,3-d]-pyrimidine]
inhibition of cell growth of RET-transformed fibroblasts [5]: inhibits the growth; also recorded: powerful, concentration dependent inhibition of cell growth | effect on growth of wild-type NIH3T3 cells [6]: no effect
